According to patent US20210353621A1 (priority 2020, published 2021):
Like-named read-outs stand apart in the source and are kept apart here.

What was measured:
OATP1B1 = OATP1B1 (Homo sapiens, UniProt Q9Y6L6); experiment: In vitro transporter inhibition, OATP1B1
OATP1B3 = OATP1B3 (Homo sapiens, UniProt Q9NPD5); experiment: In vitro transporter inhibition, OATP1B3
[1] = test system: enzalutamide resistant VCaP xenograft; experiment: Enzalutamide-resistant VCaP xenograft model; format: in vivo
[2] = Phase I clinical trial pharmacokinetics; details: male, human, in vivo, po, once daily
From the text: (§1) A traditional 3+3 dose escalation design was implemented. […] Dose increases were dependent upon toxicities.

BCRP = target: T1, BCRP (Homo sapiens, UniProt Q9UNQ0); experiment: In vitro transporter inhibition, BCRP
T1 sequence (Q9UNQ0 1-655): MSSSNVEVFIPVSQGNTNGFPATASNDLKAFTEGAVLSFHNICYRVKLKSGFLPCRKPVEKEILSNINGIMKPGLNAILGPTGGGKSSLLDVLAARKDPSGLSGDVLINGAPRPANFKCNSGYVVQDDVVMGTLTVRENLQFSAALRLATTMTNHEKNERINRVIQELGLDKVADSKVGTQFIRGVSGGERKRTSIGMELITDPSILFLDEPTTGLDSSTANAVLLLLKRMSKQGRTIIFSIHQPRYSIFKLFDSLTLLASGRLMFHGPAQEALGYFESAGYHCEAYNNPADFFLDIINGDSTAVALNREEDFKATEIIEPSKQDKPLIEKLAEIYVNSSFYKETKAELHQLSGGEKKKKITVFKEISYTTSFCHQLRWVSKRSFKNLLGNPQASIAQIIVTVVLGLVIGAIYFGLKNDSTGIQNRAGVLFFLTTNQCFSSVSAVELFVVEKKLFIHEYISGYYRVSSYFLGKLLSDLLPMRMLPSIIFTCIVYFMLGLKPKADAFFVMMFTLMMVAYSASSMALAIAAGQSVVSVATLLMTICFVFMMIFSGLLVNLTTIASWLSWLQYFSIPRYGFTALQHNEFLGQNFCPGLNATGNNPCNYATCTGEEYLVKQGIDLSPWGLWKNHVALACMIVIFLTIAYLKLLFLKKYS

[3] = 28-day GLP toxicology study in rats
in vivo = details: dog, po
[4] = Preclinical pharmacokinetics, oral once daily (Table 1); details: total drug concentrations
[5] = Phase I dose escalation safety in mCRPC patients
From the text: as §1

[6] = Exploratory non-GLP assay of rosuvastatin in retained patient plasma samples; format: in vivo, human; details: 2 patients taking rosuvastatin concurrently with Compound (I-g)
From the text: An exploratory, non-GLP method was developed to analyze for rosuvastatin and its major metabolite N-desmethyl rosuvastatin in retained pharmacokinetic plasma samples from the 2 patients.

[7] = 3 and 10 μM, preliminary study, solubility limitation
[8] = 280 mg QD patient with rosuvastatin 20 mg QD, level before decrease
[9] = same patient, within 14 days after Compound (I-g) and rosuvastatin were discontinued

Chain of OATP1B3 (Q9NPD5 whole entry): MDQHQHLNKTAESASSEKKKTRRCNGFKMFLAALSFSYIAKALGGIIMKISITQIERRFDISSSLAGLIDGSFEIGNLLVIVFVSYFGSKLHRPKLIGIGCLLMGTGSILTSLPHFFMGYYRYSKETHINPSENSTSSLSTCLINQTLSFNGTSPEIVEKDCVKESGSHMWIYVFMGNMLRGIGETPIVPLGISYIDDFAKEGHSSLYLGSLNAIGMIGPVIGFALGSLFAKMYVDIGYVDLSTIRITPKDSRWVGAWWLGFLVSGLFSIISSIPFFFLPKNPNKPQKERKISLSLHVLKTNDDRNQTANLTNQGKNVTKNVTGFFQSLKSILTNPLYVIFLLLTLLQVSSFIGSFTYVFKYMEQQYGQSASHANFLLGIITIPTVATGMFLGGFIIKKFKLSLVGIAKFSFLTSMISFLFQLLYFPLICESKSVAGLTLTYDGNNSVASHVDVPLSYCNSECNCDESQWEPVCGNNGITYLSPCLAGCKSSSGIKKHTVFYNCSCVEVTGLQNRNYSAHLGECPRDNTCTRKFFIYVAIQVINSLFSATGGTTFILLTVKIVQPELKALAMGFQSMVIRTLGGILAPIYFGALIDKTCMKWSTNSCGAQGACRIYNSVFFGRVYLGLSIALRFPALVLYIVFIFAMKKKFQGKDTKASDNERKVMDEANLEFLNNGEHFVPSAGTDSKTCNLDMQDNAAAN
Chain of OATP1B1 (Q9Y6L6 whole entry): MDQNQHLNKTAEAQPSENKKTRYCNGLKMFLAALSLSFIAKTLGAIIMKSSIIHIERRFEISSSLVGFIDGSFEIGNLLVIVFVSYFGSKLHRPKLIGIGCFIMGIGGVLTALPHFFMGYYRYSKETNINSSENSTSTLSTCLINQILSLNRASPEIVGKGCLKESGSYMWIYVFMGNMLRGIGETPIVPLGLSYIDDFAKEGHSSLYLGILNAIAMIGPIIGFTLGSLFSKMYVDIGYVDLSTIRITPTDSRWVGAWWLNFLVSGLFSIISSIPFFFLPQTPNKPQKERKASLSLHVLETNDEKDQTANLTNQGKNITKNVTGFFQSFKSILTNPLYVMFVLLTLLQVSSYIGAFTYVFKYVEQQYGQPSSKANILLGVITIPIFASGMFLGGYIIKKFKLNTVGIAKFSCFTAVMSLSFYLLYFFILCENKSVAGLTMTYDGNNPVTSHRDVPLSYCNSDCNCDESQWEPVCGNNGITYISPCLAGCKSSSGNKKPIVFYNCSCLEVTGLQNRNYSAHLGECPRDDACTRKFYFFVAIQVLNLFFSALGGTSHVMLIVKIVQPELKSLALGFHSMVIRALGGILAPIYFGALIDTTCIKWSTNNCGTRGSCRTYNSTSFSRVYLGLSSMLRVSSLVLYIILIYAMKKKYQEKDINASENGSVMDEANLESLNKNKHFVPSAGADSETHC

## N#Cc1ccc(O[C@H]2CC[C@H](NC(=O)c3ccc(N4CCC(CN5CCN(c6cc7c(cc6F)C(=O)N(C6CCC(=O)NC6=O)C7=O)CC5)CC4)nn3)CC2)cc1Cl (stereo partly shown) [Compound (I-g)]
OATP1B1
  IC50: > 10 µM
OATP1B1; [7]
  inhibition of OATP1B1: no inhibition
OATP1B3
  IC50: > 10 µM
OATP1B3; [7]
  inhibition of OATP1B3: no inhibition
[1]; 3 mg/kg oral once daily, compared to a control group
  tumor growth inhibition: 70%
[1]; 10 mg/kg and 3 mg/kg oral, once daily, FIG. 6
  AR in enzalutamide-resistant VCaP tumors (Western blot): reduction of AR
[1]; oral, once daily, enzalutamide-resistant VCaP model
  lowest efficacious dose: 3 mg/kg
[2]; 35 mg, Mean Day 1 AUC0-24, 35 mg oral
  AUC(0-t): 160 ng·h/mL
[2]; 35 mg, Mean Day 1 Cmax, 35 mg oral
  Cmax: 11.1 ng/mL
[2]; 35 mg, Mean Day 15 AUC0-24, 35 mg oral, imputed 24 hours values
  AUC(0-t): 1700 ng·h/mL
[2]; 35 mg, Mean Day 15 Cmax, 35 mg oral
  Cmax: 83 ng/mL
[2]; 70 mg, Mean Day 1 AUC0-24, 70 mg oral
  AUC(0-t): 300 ng·h/mL
[2]; 70 mg, Mean Day 1 Cmax, 70 mg oral
  Cmax: 19.6 ng/mL
[2]; 70 mg, Mean Day 15 AUC0-24, 70 mg oral, imputed 24 hours values
  AUC(0-t): 2540 ng·h/mL
[2]; 70 mg, Mean Day 15 Cmax, 70 mg oral
  Cmax: 141 ng/mL
[2]; 140 mg, Mean Day 1 AUC0-24, 140 mg oral
  AUC(0-t): 865 ng·h/mL
[2]; 140 mg, Mean Day 1 Cmax, 140 mg oral
  Cmax: 54 ng/mL
[2]; 140 mg, Mean Day 15 AUC0-24, 140 mg oral, imputed 24 hours values
  AUC(0-t): 5020 ng·h/mL
[2]; 140 mg, Mean Day 15 Cmax, 140 mg oral
  Cmax: 353 ng/mL
BCRP
  IC50: > 10 µM
BCRP; [7]
  inhibition of BCRP: no inhibition
[3]; 80 mg/kg female rat cohort
  body weight and food consumption: lost body weight and consumed less food
[3]; male high-dose rats, 14-day recovery
  reversibility of findings in male high-dose rats: fully reversible (liver hypertrophy, femur physis thickening)
[3]; male rats
  prostate weights: decreased prostate weights
[3]; rats, 28-day GLP study
  renal impairment: No evidence of renal impairment was observed
[3]; rats, oral once daily, 28 days, males 20, 60, 120 mg/kg, females 20, 40, 120 mg/kg
  tolerability: well tolerated at all doses, with the exception of the 80 mg/kg female cohort
In vivo
  MTD at 28 days: < 30 mg/kg
[4]; 1 mg/kg oral
  Mean AUC0-24: 3628 ng·h/mL
  Mean Cmax: 224 ng/mL
[4]; 3 mg/kg oral
  Mean AUC0-24: 8106 ng·h/mL
  Mean Cmax: 507 ng/mL
dogs
  histopathology correlated with AST/ALT elevations: No correlated histopathology changes were observed
dogs, 3, 10 or 30 mg/kg oral once daily
  gastrointestinal alterations: observed at all dose levels (including vehicle alone)
dogs, 10 or 30 mg/kg/day, study days 14 and 29
  AST and ALT: reversible elevations of AST and ALT
dogs, 28-day GLP study
  renal impairment: No evidence of renal impairment was observed
Male dogs
  prostate weights: decreased prostate weights
[5]; 35 mg/day cohort
  adverse events: no adverse events at grades 2, 3 or 4 were observed
  dose limiting toxicity: no dose limiting toxicity was observed
[5]; 70 mg QD following discontinuation of rosuvastatin
  AST/ALT elevation on second re-challenge: no other AST/ALT elevation has been observed for 90 days
[5]; 70 mg QD while continuing rosuvastatin
  AST/ALT elevation on re-challenge: second instance of Grade 3 AST/ALT elevation
[5]; 70 mg/day cohort
  adverse events: no adverse events at grades 2, 3 or 4 have been observed, with the exception of grade 3 anemia that was unrelated to the administration of compound (I-g)
  dose limiting toxicity: no dose limiting toxicity has been observed
[5]; 140 mg/day cohort
  adverse events: no adverse events at grades 2, 3 or 4 have been observed
  dose limiting toxicity: no dose limiting toxicity has been observed
[5]; 280 mg QD cohort (3 patients), patient taking rosuvastatin 20 mg QD
  dose limiting toxicity: one patient experienced dose limiting toxicity (DLT) of Grade 4 AST/ALT elevation followed by Grade 4 acute renal failure
[5]; [8]
  ALT level: 4116 U/L
  AST level: 4901 U/L
[5]; 18 patients, 35 mg to 280 mg QD
  overall tolerability: well tolerated
[5]; after dose interruption, 140 mg QD patient with rosuvastatin 40 mg QD
  time to resolution of Grade 3 AST/ALT elevation to Grade 1: ≤ 5 days
[5]; [9]
  ALT level: 83 U/L
  AST level: 280 U/L

## CC(C)c1nc(N(C)S(C)(=O)=O)nc(-c2ccc(F)cc2)c1/C=C/[C@@H](O)C[C@@H](O)CC(=O)O [Rosuvastatin, rosuvastatin]
[6]
  rosuvastatin plasma concentrations: increased concurrently with the increase in AST/ALT levels in both patients
